Measurements reported in publication PMC3726599, “A Metabolically-Stabilized Phosphonate Analog of Lysophosphatidic Acid Attenuates Collagen-Induced Arthritis” (PLoS ONE, 2013).

Key:
plasma ATX/LysoPLD = molecular target: T1, plasma ATX/LysoPLD (Mus musculus, UniProt Q9R1E6); assay: Plasma ATX/lysoPLD activity ex vivo (TOOS assay, exogenous LPC); assay type: biochemical; settings: for IC50: TOOS
T1 construct: from tissue; host or cells: mouse plasma / whole blood
Procedure: (§1) ATX/LysoPLD activity was assessed based on the amount of choline released from LPC with the use of TOOS (N-ethyl-N-(2-hydoroxy-3-sulfopropyl)-3-methylaniline) reagent. In this assay ATX-mediated LPC-liberated choline is oxidised by choline oxidase to betaine and hydrogen peroxide (H2O2). The latter in the presence of horseradish peroxidase reacts with TOOS and 4-aminoantipyrene (4-AAP) to form a pink quinoneimine dye measured at 555 nm.
(§2) Diluted plasma samples (100 fold dilution; final EDTA concentration 0.5 mM) or recombinant ATX protein (2 nM) were incubated with LPC in the presence of 100 mmol/l Tris–HCl/pH 9.0, 500 mmol/l NaCl, 5 mmol/l MgCl2, 5 mmol/l CaCl2, 60 μM CoCl2 and 0.05% Triton X-100 for 3 h at 37°C at a final volume of 100 μl. It should be noted that EDTA was used not only as an anticoagulant but also as an inhibitor of ATX activity ex vivo [46], in order to suppress artificial LPA production during blood withdrawal and plasma preparation; this is because the same samples were used in phospholipid measurements.
(§3) The liberated choline was detected by adding 100 μl of a color mix containing 4-AAP and TOOS (0.3 mM), horseradish peroxidase (5.3 UnitmL^−1) and choline oxidase (2 UnitmL^−1). Absorbance was measured at 555 nm and data were analyzed using the statistical software package Prism 4.0 (Graphpad Software Inc, La Jolla, CA, USA). For each sample and control the absorbance was plotted against time and the slope (da/min) for the linear (steady-state) portion of each reaction profile was calculated. Absorbance units were converted to nmol of choline/min/ml by comparison with a choline standard curve or by use of the extinction coefficient for the quinoneimine dye according to the following equation: [drawing 1] Where Vt* is the total volume of reaction in ml (0.2 ml); Vs* is the volume of sample in ml; e is the millimolar extinction coefficient of quinoneimine dye under the assay conditions (e = e = […]); and 1/2: Factor based on the fact that 1 mol of hydrogen peroxide produces 1/2 mol of quinoneimine dye.
(§4) For in vitro inhibition measurements, BrP-LPA was dissolved in water as a stock solution (4 mM) and appropriate dilutions were made in water. The inhibition of ATX by BrP-LPA was measured employing 2 nM recombinant ATX, 50 μΜ LPC (14:0, 16:0, 18:0) and 0.01 to 100 μmol/L of BrP-LPA (final concentrations). The in vitro inhibition of ATX by BrP-LPA was evaluated with three different assays (FS-3, Amplex Red, and TOOS). […] BrP-LPA was also tested for its ability to inhibit mouse plasma ATX activity. Diluted mouse plasma was used as the source of ATX and the analysis of inhibition was made with TOOS as the in vitro inhibition assay.
The inhibition model (competitive, noncompetitive, or mixed type inhibition) was evaluated by graphical analysis with Lineweaver–Burk double reciprocal plots (1/[velocity] versus 1/[substrate]) and Cornish-Bowden plot ([substrate]/[velocity] versus [Inhibitor]). These plots were generated by the measurement of ATX activity in the presence of different BrP-LPA concentrations (0–10 μΜ) and increased amounts of 16:0 LPC (100, 200, 400 μΜ). The inhibition constants (Ki) and IC50 values were determined using the mean values obtained from two independent experiments. The relative remaining ATX activity or LPA levels in the presence of the BrP-LPA was expressed as a percentage of the corresponding control value (ATX activity, LPA levels without inhibitor). The IC50 value was determined graphically by plotting the log concentration of BrP-LPA versus relative remaining ATX activity or LPA levels of each test sample using the sigmoid dose–response fitting method (Prism® software). The IC50 (concentration of BrP-LPA sufficient to inhibit ATX activity or diminish LPA levels by 50%) was calculated by the equation f = y0+a/(1+exp(-(x-x0)/b)) given by SigmaPlot 11.0 (Systat Software, Inc., San Jose, CA, USA).

[1] = tested on: peri-tumor tissue fibroblasts, hepatocellular carcinoma cells; design: method as in PMID 21674557; settings: cited from earlier work
[2] = tested on: transformed NIH3T3 cells expressing ras and ATX; design: method as in PMID 18454946; settings: cited from earlier work
recombinant ATX = molecular target: T2, recombinant ATX (Homo sapiens, UniProt Q13822); assay: TOOS activity assay, LPC hydrolysis by recombinant ATX; assay type: biochemical; settings: for Vmax of ATX in presence of BrP-LPA: 16:0 LPC 100–400 μΜ, mean(std); for % Inhibition at 10 μΜ: BrP-LPA 10 μΜ; for IC50: [S] 50 μΜ, 2 nM ATX
T2 construct: purchased SinoBiological Inc (main data); R&D (additional Km values)
Procedure: as §1, §2, §3
The biochemistry of lyso-PLD was assessed by following the kinetics data using a wide panel of different ATX substrates [FS-3, different LPC species (14:0, 16:0, 18:0, 18:1)], three different recombinant ATX proteins (R&D, Sino-Biological and Echelon) and three different ATX activity assays (FS-3, TOOS, Amplex Red). The ATX activity was measured at different substrate concentrations (typically from 1-1000 μM) in order to examine whether ATX follows Michaelis-Menten kinetics. The Michaelis constant (Km) was obtained by fitting the substrate dependence of V (ATX activity) to a rectangular hyperbola using the non-linear regression analysis of the statistical software package Prism 4.0 (GraphPad Software, Inc.). Km and Vmax were evaluated from the rectangular hyperbola curve with the use of GraphPad software.
as §4
The inhibition model (competitive, noncompetitive, or mixed type inhibition) was evaluated by graphical analysis with Lineweaver–Burk double reciprocal plots (1/[velocity] versus 1/[substrate]) and Cornish-Bowden plot ([substrate]/[velocity] versus [Inhibitor]). These plots were generated by the measurement of ATX activity in the presence of different BrP-LPA concentrations (0–10 μΜ) and increased amounts of 16:0 LPC (100, 200, 400 μΜ). […]

With `CCCCCCCCCCCCCCCC(=O)OC[C@@H](O)CC(Br)P(=O)(O)O` (stereo partly drawn) [BrP-LPA, 1-bromo-3(S)-hydroxy-4-(palmitoyloxy)butyl-phosphonate] the “% Inhibition at 10 μΜ” value (plasma ATX/LysoPLD; 14:0 LPC 50 μΜ) was 28%, the “% Inhibition at 10 μΜ” value (plasma ATX/LysoPLD; 16:0 LPC 50 μΜ) was 58% and the “% Inhibition at 10 μΜ” value (plasma ATX/LysoPLD; 18:0 LPC 50 μΜ) was 70%. For the same molecule, the IC50 (plasma ATX/LysoPLD; exogenous 14:0 LPC 50 μΜ) was greater than 10000 nM, the IC50 (plasma ATX/LysoPLD; exogenous 16:0 LPC 50 μΜ) was 2900 ± 300 nM and the IC50 (plasma ATX/LysoPLD; exogenous 18:0 LPC 50 μΜ) was less than 100 nM. For the same molecule, the “trans-differentiation of peri-tumor fibroblasts and HCC cell proliferation, migration, invasion” value [1] was “block the trans-differentiation of peri-tumor tissue fibroblasts and the associated proliferation, migration and invasion of hepatocellular carcinoma cells”, the inhibition of invasiveness [2] was 40% and the “mode of inhibition of ATX lysoPLD activity” value (recombinant ATX; 16:0 LPC as substrate, Cornish-Bowden and Lineweaver-Burk plots) was “competitive”. The “Vmax of ATX in presence of BrP-LPA” value (recombinant ATX; BrP-LPA 1 μM) was 51(3) nmole/min/ml, the “Vmax of ATX in presence of BrP-LPA” value (recombinant ATX; BrP-LPA 3 μM) was 71(4) nmole/min/ml and the “Vmax of ATX in presence of BrP-LPA” value (recombinant ATX; BrP-LPA 10 μM) was 54(13) nmole/min/ml. For the same molecule, the “% Inhibition at 10 μΜ” value (recombinant ATX; TOOS, 16:0 LPC 50 μΜ) was 80%, the “% Inhibition at 10 μΜ” value (recombinant ATX; TOOS, 18:0 LPC 50 μΜ) was 70% and the Ki (recombinant ATX; TOOS, 18:0 LPC, Cheng-Prusoff from IC50) was 600 ± 110 nM. It also gave an IC50 (recombinant ATX; TOOS, substrate 16:0 LPC, mean±std of two experiments) of 700 ± 200 nM and an IC50 (recombinant ATX; TOOS, substrate 18:0 LPC, mean±std) of 900 ± 100 nM.
